Measurements from patent US10752626B2, “Iso-citrate dehydrogenase (IDH) inhibitor” (SHANGHAI METON PHARMACEUTICAL CO., LTD, priority 2016, dated 2020).

Molecular target: IDH1 R132C (Homo sapiens (Human), UniProt O75874, R132C)
Experiment: Improved cell-based assay: D-2-HG in HT1080 cells over-expressing D-2-HG dehydrogenase
Conditions: 12 h
Text: The present disclosure also provides a cell based method for assaying IDH inhibition and selectivity of the compounds in human fibrosacoma cell line HT1080 and cholangiocarcinoma cell line HCCC 9810, which harbor endogenous heterozygous IDH1 R132C and R132H mutation respectively and accumulate D-2-HG Tumor derived IDH mutant lost its normal activity of producing α-KG and gained a new activity of producing D-2-HG D-2-HG is a metabolite specifically elevated in IDH mutated tumor samples.
By treating HT1080 and HCCC 9810 cells with an effective IDH inhibitor, the synthesis of D-2-HG is blocked, and D-2-HG concentration is decreased by the oxidation reaction catalyzed by D-2-HG dehydrogenase.
To perform a cell based IDH inhibitor assay, HT1080 and HCCC 9810 cells (or other cell lines harboring different IDH mutations) are cultured in DMEM supplemented with 10% FBS. The cells are treated with compounds of present disclosure at various different concentration. At various time points (between 4-24 hours) after the treatment, cell culture supernatants were removed and cells were washed with PBS for one or two times. Cell metabolites are extracted by adding 80% methanol (pre-chilled under −80° C.) in the cells, extract at 4° C. temperature for 60 min, centrifuged to remove any insoluble component. Metabolites (clear supernatant from the previous step) are lyophilized and reconstituted in pyridine containing 20 mg/ml O-methoxyamineHCl and are incubated at 70° C. for 40 minutes. After cooling down to room temperature, MTBSTFA (N-tert-Butyldimethylsilyl-N-methyltrifluoroacetamide, Sigma Aldrich) is added at a volume ratio of 4:7 (e.g., 20 μL MTBSTFA to 35 μL 20 mg/ml O-methoxyamineHCl solution) and derivation is performed at 70° C. for 30 minutes. The derived metabolites including D-2-HG are analyzed by Agilent 7890A-5750 GC/MS system. […] of the derived metabolite is injected into Agilent 7890A-5750 for D-2-HG concentration analysis. GC oven temperature is programmed from 140° C. to 260° C. at 10° C./min, from 260° C. to 310° C. at 8° C./min and hold at 310° C. for 5 min. The flow rate of carrier gas is 1 ml/min. The mass spectrometer is operated in the electron impact (EI) mode at 70 eV D-2-HG is normalized to endogenous glutamate.
The activity of IDHs in the presence of each compounds at different concentrations can be represented by relative D-2-HG concentration to negative control samples, and the IC50 value, the inhibition and selectivity for each compound can be evaluated.
The present disclosure also provides an improved cell-based assay for IDH inhibition and selectivity of the compounds, which involves stably over-expressing D-2-HG dehydrogenase in HT1080 and HCCC 9810 cells.
According to previous report, over expression of D-2-HG dehydrogenase decreases the half-life of D-2-HG in HT1080 cells (FIGS. 2A and 2B) [“D-2-hydroxyglutarate is essential for maintaining oncogenic property of mutant IDH-containing cancer cells but dispensable for cell growth”, Ma, S., et al., Oncotarget, (2015)], making the cells more sensitive to D-2-HG synthesis blockage by mutant IDH1 inhibitors. It will greatly increase the sensitivity and accurateness of this cell based assay. In the improved cell-based assay, all other steps are performed as disclosed in Test 6.
The D-2-HG inhibition activity of compounds was also assessed in the improved cell-based assay according to the method disclosed in Test 7 of the Biological evaluation section. HT1080 cells over-expressing D-2-HG dehydrogenase were cultured in 35 mm plate and treated with each of Compounds 1-37 at a concentration of 0.5 μM, 1 μM, 2.5 μM and 5 μM for 12 h, respectively, and the D-2-HG concentration was analysed. The inhibition ratio of D-2-HG in HT1080 cell by the exemplary Compounds 16, 21-24 and 31 at different concentrations were shown in Table 10.

Sequence of IDH1 R132C (O75874 2-414 R132C): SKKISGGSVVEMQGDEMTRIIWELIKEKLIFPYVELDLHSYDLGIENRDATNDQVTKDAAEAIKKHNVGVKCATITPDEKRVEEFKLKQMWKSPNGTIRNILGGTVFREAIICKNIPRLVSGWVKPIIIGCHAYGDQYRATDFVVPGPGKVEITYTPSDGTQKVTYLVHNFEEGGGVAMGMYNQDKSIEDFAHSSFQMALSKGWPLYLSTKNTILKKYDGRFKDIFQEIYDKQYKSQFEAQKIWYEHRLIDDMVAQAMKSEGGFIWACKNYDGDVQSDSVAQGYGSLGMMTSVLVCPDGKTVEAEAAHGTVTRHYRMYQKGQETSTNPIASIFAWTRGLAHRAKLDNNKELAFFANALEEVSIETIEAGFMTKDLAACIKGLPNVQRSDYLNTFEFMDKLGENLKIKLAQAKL

Compound	Inhibition ratio of D-2-HG in HT1080 cell (0.5 μM) [%]	Inhibition ratio of D-2-HG in HT1080 cell (1 μM) [%]	Inhibition ratio of D-2-HG in HT1080 cell (2.5 μM) [%]	Inhibition ratio of D-2-HG in HT1080 cell (5 μM) [%]
CCN1Cc2c(ccnc2N[C@@H](C)c2ccc(Oc3ccc(C)cc3)cc2)C1=O [Compound 16, (S)-2-ethyl-4-(1-(4-(p-tolyloxy)phenyl)ethylamino)-2,3-dihydro-1H-pyrrolo [3,4-c]pyridin-1-one]	51	60.2	67	82.2
CCN1Cc2c(ccnc2N[C@@H](C)c2ccc(Oc3ccccc3)c(F)c2)C1=O [Compound 23, (S)-2-ethyl-4-((1-(3-fluoro-4-phenoxyphenyl)ethyl)amino)-2,3-dihydro-1H-pyrrolo[3,4-c]pyridin-1-one]	12.5	30.7	68.3	76.7
